Experimental data reported in patent publication US20050260733A1, “Proteases and uses thereof” (WYETH, priority 2004, published 2005).

System: MAb AGG-C1
Experiment: Competitive inhibition ELISA validating the neoepitope specificity of MAb AGG-C1
Assay type: binding, mouse
Details: competitor 1.0-1000 nmol/ml, MAb AGG-C1 0.04 μg/ml, FIG. 5
Experimental: Streptavidin-coated microtiter plates (Pierce, Rockford, Ill.) were coated with N-terminally biotinylated peptide aggc1 (b-aggc1) by incubating each well with 100 μl of b-aggc1 (100 ng/ml) for 1 h at room temperature. After washing 4 times with phosphate-buffered saline containing 0.01% Tween-20 (PBS-Tween), wells were blocked for 1 h at room temperature with 100 μl of PBS-Tween containing 2% BSA, followed by 4 washes with PBS-Tween.
In order to validate the neoepitope nature of MAb AGG-C1, competition mixtures (100 μl) comprised of MAb AGG-C1 (0.04 μg/ml) and 1.0-1000 nmol/ml of the synthetic peptides GGLPLPRNITEGE (SEQ ID NO:22), GGLPLPRNITEGE ARGSVILTVK-CONH2 (SEQ ID NO:23), undigested aggrecan, or ADAMTS-4 digested aggrecan were preincubated for 1 h at room temperature. Mixtures were then transferred to b-aggc1 coated wells. After a further incubation for 1 h at room temperature, the plates were washed 4 times with PBS-Tween then incubated for 1 h at room temperature with 100 μl of peroxidase-conjugated secondary goat anti-mouse IgG (1:10,000). Following 4 final washes with PBS-Tween, the wells were incubated with TMB 1 component microwell peroxidase substrate (BioFX Laboratories, Owings Mills, Md.). Color development was terminated by the addition of 0.18 M H2SO4, and the absorbance was monitored spectrophotometrically at 450 nm.

Row | Substance | competition for MAb AGG-C1 binding to biotinylated aggc1 peptide
1 | ADAMTS4 digested aggrecan: Bovine aggrecan digested with ADAMTS-4, used as ELISA competitor | Dose-dependent competition
2 | GGLPLPRNITEGE (listed as Homo sapiens) [Synthetic peptide whose C-terminus corresponds to E373 of aggrecan core protein] | Dose-dependent competition
3 | GGPLPRNITEGEARGSVILTVK [Synthetic peptide spanning the aggrecanase cleavage site] | did not compete
4 | undigested aggrecan: Intact bovine aggrecan, used as ELISA competitor | did not compete
